From patent US8580794B2 (AbbVie Inc., priority 2009, dated 2013)

Each compound was assayed against GST-Bc1-2 (Homo sapiens, UniProt P10415) (assay: Time Resolved-Fluorescence Resonance Energy Transfer (TR-FRET) Bcl-2 binding assay with F-Bak peptide probe). Conditions: GST-Bcl-2 1 nM, F-Bak probe 100 nM, Tb-anti-GST 1 nM; '<' = below limit of detection; read-out: TR-FRET Bcl-2 Binding Ki.
Sequence of GST-Bc1-2 (P10415 whole entry): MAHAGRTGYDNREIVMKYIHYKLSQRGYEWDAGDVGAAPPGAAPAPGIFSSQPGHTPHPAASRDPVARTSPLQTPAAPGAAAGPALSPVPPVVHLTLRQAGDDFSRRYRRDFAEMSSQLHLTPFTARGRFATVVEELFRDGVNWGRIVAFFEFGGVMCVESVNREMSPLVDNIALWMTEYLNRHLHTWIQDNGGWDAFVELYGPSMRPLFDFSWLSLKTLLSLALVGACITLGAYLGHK
`CC1(C)CCC(CN2CCN(c3ccc(C(=O)NS(=O)(=O)c4ccc(NCC5CN(CC(=O)O)CCO5)c([N+](=O)[O-])c4)c(Oc4cnc5[nH]ccc5c4)c3)CC2)=C(c2ccc(Cl)cc2)C1` (stereo not drawn) [Example 216, (2-{[(4-{[4-(4-{[2-(4-chlorophenyl)-4,4-dimethylcyclohex-1-en-1-yl]methyl}piperazin-1-yl)-2-(1H-pyrrolo[2,3-b]pyridin-5-yloxy)benzoyl]sulfamoyl}-2-nitrophenyl)amino]methyl}morpholin-4-yl)acetic acid] gave a Ki of less than 0.01 nM.
`CC1(C)CCC(CN2CCN(c3ccc(C(=O)NS(=O)(=O)c4ccc(NCC5CN(C6COC6)CCO5)c([N+](=O)[O-])c4)c(Oc4cnc5[nH]ccc5c4)c3)CC2)=C(c2ccc(Cl)cc2)C1` (stereo not drawn) [Example 217, 4-(4-{[2-(4-chlorophenyl)-4,4-dimethylcyclohex-1-en-1-yl]methyl}piperazin-1-yl)-N-{[3-nitro-4-({[4-(oxetan-3-yl)morpholin-2-yl]methyl}amino)phenyl]sulfonyl}-2-(1H-pyrrolo[2,3-b]pyridin-5-yloxy)benzamide] showed a Ki of less than 0.01 nM.
Work on `CC1(C)CCC(CN2CCN(c3ccc(C(=O)NS(=O)(=O)c4ccc(NCC5CN(C6CC6)CCO5)c([N+](=O)[O-])c4)c(Oc4cnc5[nH]ccc5c4)c3)CC2)=C(c2ccc(Cl)cc2)C1` (stereo not drawn) [Example 218, 4-(4-{[2-(4-chlorophenyl)-4,4-dimethylcyclohex-1-en-1-yl]methyl}piperazin-1-yl)-N-[(4-{[(4-cyclopropylmorpholin-2-yl)methyl]amino}-3-nitrophenyl)sulfonyl]-2-(1H-pyrrolo[2,3-b]pyridin-5-yloxy)benzamide] yielded a Ki of 0.013 nM.
`CC1(C)CCC(CN2CCN(c3ccc(C(=O)NS(=O)(=O)c4cnc(OCC5CCOCC5)c(S(C)(=O)=O)c4)c(Oc4cnc5[nH]ccc5c4)c3)CC2)=C(c2ccc(Cl)cc2)C1` [Example 219, 4-(4-{[2-(4-chlorophenyl)-4,4-dimethylcyclohex-1-en-1-yl]methyl}piperazin-1-yl)-N-{[5-(methylsulfonyl)-6-(tetrahydro-2H-pyran-4-ylmethoxy)pyridin-3-yl]sulfonyl}-2-(1H-pyrrolo[2,3-b]pyridin-5-yloxy)benzamide] was tested, and the Ki was 1.19 nM.
For `CC1(C)CCC(CN2CCN(c3ccc(C(=O)NS(=O)(=O)c4ccc(OCC5(F)CCOCC5)c(S(=O)(=O)C(F)(F)F)c4)c(Oc4cnc5[nH]ccc5c4)c3)CC2)=C(c2ccc(Cl)cc2)C1` [Example 220, 4-(4-{[2-(4-chlorophenyl)-4,4-dimethylcyclohex-1-en-1-yl]methyl}piperazin-1-yl)-N-({4-[(4-fluorotetrahydro-2H-pyran-4-yl)methoxy]-3-[(trifluoromethyl)sulfonyl]phenyl}sulfonyl)-2-(1H-pyrrolo[2,3-b]pyridin-5-yloxy)benzamide], the Ki was 0.988 nM.
For `CC1(C)CCC(CN2CCN(c3ccc(C(=O)NS(=O)(=O)c4ccc(OCC5(C)CCOCC5)c([N+](=O)[O-])c4)c(Oc4cnc5[nH]ccc5c4)c3)CC2)=C(c2ccc(Cl)cc2)C1` [Example 221, 4-(4-{[2-(4-chlorophenyl)-4,4-dimethylcyclohex-1-en-1-yl]methyl}piperazin-1-yl)-N-({4-[(4-methyltetrahydro-2H-pyran-4-yl)methoxy]-3-nitrophenyl}sulfonyl)-2-(1H-pyrrolo[2,3-b]pyridin-5-yloxy)benzamide], the Ki was 0.049 nM.
In the case of `CCOC(=O)N1CCN(c2ccc(S(=O)(=O)NC(=O)c3ccc(N4CCN(CC5=C(c6ccc(Cl)cc6)CC(C)(C)CC5)CC4)cc3Oc3cnc4[nH]ccc4c3)cc2[N+](=O)[O-])CC1` [Example 222, ethyl 4-(4-{[4-(4-{[2-(4-chlorophenyl)-4,4-dimethylcyclohex-1-en-1-yl]methyl}piperazin-1-yl)-2-(1H-pyrrolo[2,3-b]pyridin-5-yloxy)benzoyl]sulfamoyl}-2-nitrophenyl)piperazine-1-carboxylate], the Ki is reported as 0.938 nM.
With `CC1(C)CCC(CN2CCN(c3ccc(C(=O)NS(=O)(=O)c4ccc(N5CCC(N6CCOCC6)CC5)c([N+](=O)[O-])c4)c(Oc4cnc5[nH]ccc5c4)c3)CC2)=C(c2ccc(Cl)cc2)C1` [Example 223, 4-(4-{[2-(4-chlorophenyl)-4,4-dimethylcyclohex-1-en-1-yl]methyl}piperazin-1-yl)-N-({4-[4-(morpholin-4-yl)piperidin-1-yl]-3-nitrophenyl}sulfonyl)-2-(1H-pyrrolo[2,3-b]pyridin-5-yloxy)benzamide] the Ki was 0.053 nM.
In the case of `CC1(C)CCC(CN2CCN(c3ccc(C(=O)NS(=O)(=O)c4ccc(N[C@@H]5CCN(C(CF)CF)C5)c(S(=O)(=O)C(F)(F)F)c4)c(Oc4cnc5[nH]ccc5c4)c3)CC2)=C(c2ccc(Cl)cc2)C1` [Example 225, 4-(4-{[2-(4-chlorophenyl)-4,4-dimethylcyclohex-1-en-1-yl]methyl}piperazin-1-yl)-N-[(4-{[(3R)-1-(1,3-difluoropropan-2-yl)pyrrolidin-3-yl]amino}-3-[(trifluoromethyl)sulfonyl]phenyl)sulfonyl]-2-(1H-pyrrolo[2,3-b]pyridin-5-yloxy)benzamide], the Ki is reported as 0.196 nM.
In the case of `CC(C)N1CCC(Nc2ccc(S(=O)(=O)NC(=O)c3ccc(N4CCN(CC5=C(c6ccc(Cl)cc6)CC(C)(C)CC5)CC4)cc3Oc3cnc4[nH]ccc4c3)cc2[N+](=O)[O-])CC1` [Example 226, 4-(4-{[2-(4-chlorophenyl)-4,4-dimethylcyclohex-1-en-1-yl]methyl}piperazin-1-yl)-N-({4-[(1-isopropylpiperidin-4-yl)amino]-3-nitrophenyl}sulfonyl)-2-(1H-pyrrolo[2,3-b]pyridin-5-yloxy)benzamide], the Ki is reported as 0.139 nM.
`CC1(C)CCC(CN2CCN(c3ccc(C(=O)NS(=O)(=O)c4ccc(NC5CCN(C(C)(C)C)CC5)c([N+](=O)[O-])c4)c(Oc4cnc5[nH]ccc5c4)c3)CC2)=C(c2ccc(Cl)cc2)C1` [Example 227, N-({4-[(1-tert-butylpiperidin-4-yl)amino]-3-nitrophenyl}sulfonyl)-4-(4-{[2-(4-chlorophenyl)-4,4-dimethylcyclohex-1-en-1-yl]methyl}piperazin-1-yl)-2-(1H-pyrrolo[2,3-b]pyridin-5-yloxy)benzamide] showed a Ki of less than 0.01 nM.
Work on `COCCN1CCCC(CNc2ccc(S(=O)(=O)NC(=O)c3ccc(N4CCN(CC5=C(c6ccc(Cl)cc6)CC(C)(C)CC5)CC4)cc3Oc3cnc4[nH]ccc4c3)cc2[N+](=O)[O-])C1` (stereo not drawn) [Example 228, 4-(4-{[2-(4-chlorophenyl)-4,4-dimethylcyclohex-1-en-1-yl]methyl}piperazin-1-yl)-N-{[4-({[1-(2-methoxyethyl)piperidin-3-yl]methyl}amino)-3-nitrophenyl]sulfonyl}-2-(1H-pyrrolo[2,3-b]pyridin-5-yloxy)benzamide] yielded a Ki of 26.8 nM.
`CC1(C)CCC(CN2CCN(c3ccc(C(=O)NS(=O)(=O)c4ccc(NCC5CCCN(CC#N)C5)c([N+](=O)[O-])c4)c(Oc4cnc5[nH]ccc5c4)c3)CC2)=C(c2ccc(Cl)cc2)C1` (stereo not drawn) [Example 229, 4-(4-{[2-(4-chlorophenyl)-4,4-dimethylcyclohex-1-en-1-yl]methyl}piperazin-1-yl)-N-{[4-({[1-(cyanomethyl)piperidin-3-yl]methyl}amino)-3-nitrophenyl]sulfonyl}-2-(1H-pyrrolo[2,3-b]pyridin-5-yloxy)benzamide] showed a Ki of 2.11 nM.
In the case of `CN1CCC(F)(COc2ccc(S(=O)(=O)NC(=O)c3ccc(N4CCN(CC5=C(c6ccc(Cl)cc6)CC(C)(C)CC5)CC4)cc3Oc3cnc4[nH]ccc4c3)cc2S(=O)(=O)C(F)(F)F)CC1` [Example 230, 4-(4-{[2-(4-chlorophenyl)-4,4-dimethylcyclohex-1-en-1-yl]methyl}piperazin-1-yl)-N-({4-[(4-fluoro-1-methylpiperidin-4-yl)methoxy]-3-[(trifluoromethyl)sulfonyl]phenyl}sulfonyl)-2-(1H-pyrrolo[2,3-b]pyridin-5-yloxy)benzamide], the Ki is reported as 0.031 nM.
Work on `CC1(C)CCC(CN2CCN(c3ccc(C(=O)NS(=O)(=O)c4ccc(NN5CCN(C(=O)OC(C)(C)C)CC5)c([N+](=O)[O-])c4)c(Oc4cnc5[nH]ccc5c4)c3)CC2)=C(c2ccc(Cl)cc2)C1` [Example 232, tert-butyl 4-[(4-{[4-(4-{[2-(4-chlorophenyl)-4,4-dimethylcyclohex-1-en-1-yl]methyl}piperazin-1-yl)-2-(1H-pyrrolo[2,3-b]pyridin-5-yloxy)benzoyl]sulfamoyl}-2-nitrophenyl)amino]piperazine-1-carboxylate] yielded a Ki of 1.63 nM.
`CC1(C)CCC(CN2CCN(c3ccc(C(=O)NS(=O)(=O)c4ccc(NCC5CCOCC5)c(S(F)(F)(F)(F)F)c4)c(Oc4cnc5[nH]ccc5c4)c3)CC2)=C(c2ccc(Cl)cc2)C1` [Example 233, 4-(4-{[2-(4-chlorophenyl)-4,4-dimethylcyclohex-1-en-1-yl]methyl}piperazin-1-yl)-N-({3-(pentafluoro-lambda˜6˜-sulfanyl)-4-[(tetrahydro-2H-pyran-4-ylmethyl)amino]phenyl}sulfonyl)-2-(1H-pyrrolo[2,3-b]pyridin-5-yloxy)benzamide] showed a Ki of 1.65 nM.
`COC1(COc2ccc(S(=O)(=O)NC(=O)c3ccc(N4CCN(CC5=C(c6ccc(Cl)cc6)CC(C)(C)CC5)CC4)cc3Oc3cnc4[nH]ccc4c3)cc2[N+](=O)[O-])CCOCC1` [Example 234, 4-(4-{[2-(4-chlorophenyl)-4,4-dimethylcyclohex-1-en-1-yl]methyl}piperazin-1-yl)-N-({4-[(4-methoxytetrahydro-2H-pyran-4-yl)methoxy]-3-nitrophenyl}sulfonyl)-2-(1H-pyrrolo[2,3-b]pyridin-5-yloxy)benzamide] showed a Ki of 0.115 nM.
For `CC1(C)CCC(CN2CCN(c3ccc(C(=O)NS(=O)(=O)c4ccc(O[C@@H]5CCN(C(CF)CF)C5)c([N+](=O)[O-])c4)c(Oc4cnc5[nH]ccc5c4)c3)CC2)=C(c2ccc(Cl)cc2)C1` [Example 235, 4-(4-{[2-(4-chlorophenyl)-4,4-dimethylcyclohex-1-en-1-yl]methyl}piperazin-1-yl)-N-[(4-{[(3R)-1-(1,3-difluoropropan-2-yl)pyrrolidin-3-yl]oxy}-3-nitrophenyl)sulfonyl]-2-(1H-pyrrolo[2,3-b]pyridin-5-yloxy)benzamide], the Ki was 0.023 nM.
